Experiments:
OCI-AML3 cells [1] = test: CD11b/CD11c differentiation markers by flow cytometry in OCI-AML3 with or without H1d knockdown and ATRA; assay type: cell-based; details: for proportion of the double positive CD11b/CD11c populations / CD11b expression (percentage of CD11b positive cells): ATRA 0.5 μM; for proportion of the double positive CD11b/CD11c populations: 72 h
Description: (A) OCI-AML cells were stably infected by a doxycycline inducible shCtrl or shH1d. Expression of the main histone H1 genes (HIST1H1B, HIST1H1C, HIST1H1D, HIST1H1E, HIST1H1F0 and HIST1HIFx) were analyzed by qPCR in shCtrl and sh #1 without (Dox−) or with 6-days-induction of doxycycline (Dox+). Data represent three independent Dox inductions. Results are normalized on HPRT and expressed in fold change (FC) between Doxycyline treated (Dox+) and non-treated conditions (Dox−). (B) Percentage of CD11b positive cells in shCtrl and sh #1 upon or not (Dox−) 6-days-induction with 2 μg/mL doxycycline (Dox+), without ATRA (wo ATRA) or with 72 hours of ATRA treatment (0.5 μM or 1 μM). (C) Percentage of CD11b-CD11c cells upon 72 h of ATRA-treatment (0.5 μM) in shCtrl and sh #1 conditions. Data represent three independent experiments. Statistical significance was estimated using Mann Whitney test * p<0.05; **p<0.005. (D) Cytological analysis of shCtrl and sh #1 clones upon or not (Dox−) 6-days-induction with doxycycline (Dox+) and after 96 h of ATRA treatment (0.5 μM). (D) May-Grunwald Giemsa coloration of shCtrl and sh #1 clones after 6-days-induction with doxycycline and 96 h hours of ATRA treatment. Black arrows are pointing cytoplasmic azurophilic granules. (E) Expression analysis of two genes associated with ATRA-induced differentiation: CYBB (Cytochrome B-245 Beta Chain) and ITGAM (Integrin Subunit Alpha M) in untreated OCI-AML3 and in ATRA-treated (1 μM) sh #1 without or with doxycycline induction. Data represent three independent experiments. Gene expression was normalized to two housekeeping genes (PGK1 and PPIA). Statistical significance was estimated using T-test (* one-tailed p value <0.05).
The OCI-AML3 cells were grown in MEMα medium supplemented with 20% fetal bovine serum, 100 U/mL penicillin and 100 U/mL streptomycin at 37° C. in humidified atmosphere containing 5% CO2. H1d knockdown was achieved using doxycylin-induced Dharmacon™SMARTvector™ short hairpin RNA (n° V3SH7669-229784413). A non-silencing sh RNA (piSMART VSC10730) was used as a control (shCtrl). Cells containing the SMARTvector™ were selected on puromycin (2 μg/mL) during one day and sorted using ARIAIII cytometer before clonal selection. Three independent cellular clones (sh #1; sh #2; sh #3) were selected. KD of H1d protein was obtained by the addition on doxycycline (2 μg/mL) during 5-7 days. All-trans-retinoic acid (ATRA; Sigma) was resuspended at 10 mM in DMSO and stored at −20° C. Intermediate dilutions were made in culture medium before adding to the cells.
Flow cytometry analyses were performed using a BD-LSRII cytometer and analyzed using BD-DIVA Version 6.1.2 software (BD Biosciences). […]
(§1) To investigate the effect of low H1d expression on AML, we performed H1d knockdown (KD) in OC1-AML3 cells, an AML cell line expressing a NPM1 mutated allele.^26 Efficiency and specificity of our KD were assessed by testing the different mRNA H1 subtypes expression by q-PCR (FIG. 2A) and by measuring H1d protein level after doxycycline induction (data not shown). Consequences of H1d KD on differentiation were evaluated by measuring CD11b and CD11c expression in OCI-AML3 after doxycycline induction. […] As OCI-AML3 can differentiate in vitro in the presence of ATRA, albeit at low efficiency,^27,28 we further analyzed the effect of H1d KD in combination with ATRA treatment. […]

OCI-AML3 cells [2] = test: qPCR expression of ATRA-induced genes CYBB and ITGAM; assay type: cell-based; details: ATRA 1 μM, H1d KD versus no doxycycline induction
Description: (§2) (A) OCI-AML cells were stably infected by a doxycycline inducible shCtrl or shH1d. Expression of the main histone H1 genes (HIST1H1B, HIST1H1C, HIST1H1D, HIST1H1E, HIST1H1F0 and HIST1HIFx) were analyzed by qPCR in shCtrl and sh #1 without (Dox−) or with 6-days-induction of doxycycline (Dox+). Data represent three independent Dox inductions. Results are normalized on HPRT and expressed in fold change (FC) between Doxycyline treated (Dox+) and non-treated conditions (Dox−). (B) Percentage of CD11b positive cells in shCtrl and sh #1 upon or not (Dox−) 6-days-induction with 2 μg/mL doxycycline (Dox+), without ATRA (wo ATRA) or with 72 hours of ATRA treatment (0.5 μM or 1 μM). […]
as §1

OCI-AML3 cells [3] = test: Morphological analysis (May-Grunwald Giemsa), cells with cytoplasmic granules; assay type: cell-based; details: ATRA 0.5 μM, 96 h
Description: as §2
Cytospins were prepared by centrifugation in […] PBS at a speed of 500 rpm for 5 min using Superfrost slides. […] 100 cells were counted in duplicate for each condition and examined for cellular morphology using an structured light ApoTome™ microscope (Zeiss, Munich, Germany) equipped with a 63× 1.4 plan ApoChromat objective and an Axiocam™ MRc5 camera.
To investigate the effect of low H1d expression on AML, we performed H1d knockdown (KD) in OC1-AML3 cells, an AML cell line expressing a NPM1 mutated allele.^26 Efficiency and specificity of our KD were assessed by testing the different mRNA H1 subtypes expression by q-PCR (FIG. 2A) and by measuring H1d protein level after doxycycline induction (data not shown). […]

[4] = system: NPM1mut AML patient-derived xenograft (H3K27me3HIST1high / H3K27me3HIST1low); test: Patient-derived xenograft (PDX) treated with Ara-C; assay type: in vivo, mice; details: for Percentage of leukemic initiating cells (LIC) in BM: 2-round ARAC treated versus untreated
Description: FIG. 4: Detection of leukemic initiating cells after ARAC treatment. (A) H3K27me3HIST1^high and H3K27me3HIST1^low AML secondary transplants were injected in immunocompromised mice (NSG). At disease detection, mice were treated with a first round of ARAC (T1). Blasts in the peripheral blood were followed and a second ARAC treatment (T2) was administrated. (B) Frequency of leukemic initiating cells were analyzed in the BM of the transplanted mice. Percentages are calculated in relation to CD45 and CD33 positive cells detected.
We determined the response to chemotherapy according to H3K27me3 status. This was tested in vivo using patient-derived xenograft (PDX) treated with chemotherapeutic drugs (Ara-C). We used secondary transplantation from 1 H3K27me3HIST1low and 2 H3K27me3HIST1high NPM1mut AML patients. Experimental groups of 6 mice/groups of H3K27me3 HIST1high versus H3K27me3 HIST1low were studied. Mice were treated for one week and progression of leukemia was evaluated by counting hCD45+ cells in blood and after euthanasia in bone marrow. Mouse maintenance and experimental procedures were performed in accordance with protocols approved and compliance with policies approved by the local Committee for Animal Experimentation of Marseille (CAE of Provence number 14), France (2-091009).
We performed a second round of ARAC treatment and analyzed the presence of leukemic cells 4-day post treatment. Numbers of blasts were variable depending on the patient with an accumulation in the BM of leukemic Blast in one of the PDX. […] Thus we analyzed the % of LIC in the 2-round ARAC treated mice in comparison to untreated ones (FIG. 4A).

CC1=C(/C=C/C(C)=C/C=C/C(C)=C/C(=O)O)C(C)(C)CCC1 [ATRA, all-trans retinoic acid]
proportion of the double positive CD11b/CD11c populations (OCI-AML3 cells [1]; H1d KD cells): 42.5% | proportion of the double positive CD11b/CD11c populations (OCI-AML3 cells [1]; control (no H1d KD)): 29.8% | CD11b expression (percentage of CD11b positive cells) (OCI-AML3 cells [1]; 72 hours, with H1d KD (doxycycline-induced)): 41% | CD11b expression (percentage of CD11b positive cells) (OCI-AML3 cells [1]; 72 hours, without H1d KD (control)): 22.6% | CD11b expression (OCI-AML3 cells [1]; ATRA 1 μM, 72 hours, with H1d KD versus control): significant increase | CYBB mRNA expression level (OCI-AML3 cells [2]): increased the amplitude of ATRA-induced upregulation | ITGAM mRNA expression level (OCI-AML3 cells [2]): increased the amplitude of ATRA-induced upregulation | proportion of cells with more than two cytoplasmic granules (OCI-AML3 cells [3]; H1d KD): 31.5±3.7 | proportion of cells with more than two cytoplasmic granules (OCI-AML3 cells [3]; control (no H1d KD)): 9.7%

Nc1ccn([C@@H]2O[C@H](CO)[C@@H](O)[C@@H]2O)c(=O)n1 [ARAC, cytarabine]
Percentage of leukemic initiating cells (LIC) in BM ([4]; H3K27me3HIST1high PDX): identical before and after treatment | Percentage of leukemic initiating cells (LIC) in BM ([4]; H3K27me3HIST1low PDX): increased | Response to chemotherapy (progression of leukemia, hCD45+ cells) ([4]; first round, one week treatment, all PDX independently of H3K27me3HIST1 status): Response to chemotherapy was obtained in all mice
